Read-outs that look alike come from different tables or passages of the source.
Key:
[1] = test system: catechol dioxygenase (CatA); assay: Substrate specificity of catechol dioxygenase in cell extract; format: biochemical, Amycolatopsis species ATCC 39116; details: for Specific activity: 20 μM substrate, MA formation at 260 nm
Procedure: The cells were harvested by centrifugation, washed in 60 mM Tris-HCl buffer (pH 8.2), and disrupted in pre-packed lysis tubes (0.1 mm silica spheres, Lysing Matrix B, MP Biomedicals, Heidelberg, Germany), using three intervals of disruption in a ribolyzer (Precellys-24, Peq Lab, Hannover, Germany, 3×30 s, 6 m s^−1) with […] on ice in between. Removal of cell debris and protein quantification was performed as previously described (Becker et al., 2009. Appl. Environ. Microbiol. 75, 7866-9). […] The reaction was monitored on-line via the change in absorbance at 260 nm, reflecting the accumulation of MA (c=16,800 M^−1 cm^−1) (Jimenez et al., 2014. Microbiol. 16, 1767-78). […] Controls without cell extract and without substrate were included.
Subsequently, GC-MS analysis of pure MA and of lyophilized culture supernatant from a culture on o-cresol was conducted. […] It was now interesting to see, how this product was actually derived.

[2] = test system: Amycolatopsis sp. ATCC 39116; assay: Utilization of aromatics as sole source of carbon (growth, OD600); format: cell-based; details: 2 mM substrate as sole source of carbon in mineral salt medium; OD600 after 40 hours
Procedure: For genetic engineering work, E. coli strains were grown in liquid Luria-Bertani (LB) medium or on solid LB medium, which additionally contained 20 g L^−1 agar (Becton Dickinson, Heidelberg, Germany). For conjugation, A. species ATCC 39116 was grown in liquid GYM medium, containing per liter: 4 g glucose, 4 g yeast extract (Becton Dickinson), and 10 g malt extract (Becton Dickinson). For sporulation and for cloning purposes, solid GYM medium, additionally containing 20 g L^−1 agar (Becton Dickinson), was used. For the pre-culture and the main culture in growth and production studies, a mineral medium (pH 7.2) was used, which contained per liter: 4.5 g Na2HPO4*7H2O, 3.0 g (NH4)2SO4, 1.0 g KH2PO4, 200 mg NaCl, 200 mg MgSO4.7H2O, 50 mg CaCl2.2H2O, 2 mg ZnSO4.7H2O, 1.2 mg MnCl2.4H2O, 0.4 mg CoCl2.6H2O, 0.2 mg NaMoO4.2H2O, 0.2 mg CuSO4.5H2O. […] For direct MA production from pre-treated lignin, appropriate amounts of the obtained hydrolysate (see below) were added. For plasmid maintenance, kanamycin (50 μg mL^−1) or apramycin (50 μg mL^−1) were added, respectively, when needed. In addition, 5-Bromo-4-chloro-1H-indol-3-yl β-D-gluco-pyranosiduronic acid (X-Gluc) was added to selection agar plates (40 μg mL^−1) for blue white screening.
(§1) Amycolatopsis was cultivated in baffled shake flasks, filled to 10% with liquid medium. Single colonies from agar plates, incubated for 24 h at 37° C., were used as inoculum for the first pre-culture. From there, cells were harvested during the exponential growth by centrifugation (5 min, 8800 xg, and 37° C.), and used afterwards as inoculum for the main culture. All shake flask cultivations were conducted in triplicate at 37° C. and 230 rpm on an orbital shaker (Multitron, Infors AG, Bottmingen, Switzerland).
The wildtype was cultivated in minimal medium on a range of aromatics, reflecting a spectrum of potential lignin-derivable raw materials.

[3] = biological target: catechol-1,2-dioxygenase (CatA) (Corynebacterium glutamicum, UniProt Q8NN11); assay: Catechol-1,2-dioxygenase (CatA) activity and kinetics in crude cell extracts; format: biochemical
catechol-1,2-dioxygenase (CatA), sequence (Q8NN11 entry or part of it): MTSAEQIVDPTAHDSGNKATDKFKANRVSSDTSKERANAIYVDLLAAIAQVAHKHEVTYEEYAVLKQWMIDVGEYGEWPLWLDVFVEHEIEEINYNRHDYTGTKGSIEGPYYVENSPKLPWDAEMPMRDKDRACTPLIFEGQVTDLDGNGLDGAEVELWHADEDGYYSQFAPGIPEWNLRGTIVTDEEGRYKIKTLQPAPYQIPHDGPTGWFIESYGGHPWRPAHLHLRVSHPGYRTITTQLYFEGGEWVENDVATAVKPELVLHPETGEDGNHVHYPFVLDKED
Procedure: Crude cell extracts were prepared from exponentially growing cells by mechanical cell disruption. Cell harvest was carried out as previously described (Buschke et al., 2011. Biotechnol. J. 6, 306-17). Aliquots of 1 mL cell suspension were transferred into FastPrep-24 vials (MP Biomedicals, Illkirch-Graffenstaden, France), containing silica beads (Ø 0.1 mm). Cell disruption was carried out in 2×30 sec cycles at 5,000 rpm (Precellys-24, Peqlab, Hannover, Germany), including a 5 minute cooling pause on ice. The extract was also chilled on ice after the disruption. Removal of cell debris and protein quantification was performed as previously described (Becker et al., 2009. Appl. Environ. Microbiol. 75, 7866-9). […] The formation of MA (c=[…]) was monitored via the change in absorbance at 260 nm (Guzik et al., 2013. Int. J. Gen. Mol. Microbiol. 103, 1297-1307). […] The kinetic parameters of the enzyme were obtained by fitting the experimental data to the Michaelis-Menten type kinetic equation (OriginLab, Northhampton, Mass., USA). The protein content in the crude cell extract was quantified, using bovine serum albumin as standard (Pierce BCA Protein Assay Kit, Thermo Fisher Scientific).

[4] = test system: Corynebacterium glutamicum LIMA-1; format: cell-based; details: glucose as growth substrate; 24 hours
Procedure: C. glutamicum was grown at 1 mL-scale in a micro bioreactor (BioLector I, m2plabs, Baesweiler, Germany), using 48-well flower plates. […] All cultures were conducted as biological triplicate.
A set of growth experiments was conducted to study potential inhibitory effects of the compounds involved on growth of the producing strains.

[5] = test system: Corynebacterium glutamicum LIMA-1; assay: Kinetics and stoichiometry of MA production from aromatics, batch shake flask, LIMA-1; format: cell-based
Procedure: (§2) C. glutamicum was grown in baffled shake flasks with 10% filling volume at 30° C. and 230 rpm on an orbital shaker (Multitron, Infors AG, Bottmingen, Switzerland, 5 cm shaking diameter). The cultivation procedure involved one pre-culture in complex medium (37 g L^−1 BHI) followed by another pre-cultivation and then by the main cultivation, both in minimal medium (Kind et al., 2013. Metab. Eng. 15, 184-95.), which contained the following salts and vitamins per liter: NaCl, 0.055 g CaCl2.H2O, 0.2 g MgSO4.7H2O, 15 g (NH4)2SO4, 24.98 g K2HPO4, 7.7 g KH2PO4, 20 mg FeSO4.7 H2O, 0.5 mg biotin, 1 mg thiamine.HCl, 30 mg 3,4-dihydroxybenzoic acid and 10 mL of a 100× trace element solution (Vallino and Stephanopoulos., 1993. Biotechnol. Bioeng. 41, 633-646). […] The different medium ingredients were combined at room temperature freshly before use. The pH was kept constant at 7.0±0.2 by manual addition of 2 M NaOH. All cultures were conducted as biological triplicate.
(§3) A diode array detector was used for detection of MA (260 nm) and the aromatics (210 nm). The quantification of glucose was carried out by isocratic HPLC (Agilent 1260 Infinity Series, Waldbronn, Germany). The separation was conducted on an Aminex HPX-87H column (300×7.8 mm; Bio-Rad, Munich, Germany) at 55° C. As mobile phase, 3.5 mM H2SO4 was used at a flow rate of 0.8 mL min^−1. The refraction index was used for detection. The concentration of cell dry mass (CDM) was calculated from the measured optical density (OD660) using a correlation factor of CDM (g/L)=0.32×OD660 (Rohles et al., 2016. Microb. Cell Fact. 15, 154). The exact monitoring of the cell concentration during the intracellular metabolite sampling and the above correlation allowed to relate the obtained metabolite levels to the CDM (μmol gCDM^−1). The correlation between the cytoplasmic volume and the CDM (1.95 mL gCDM^−1) was used to express intracellular concentrations in mM (Gutmann et al., 1992. Biochim. Biophys. Acta. 1112, 115-23).

[6] = test system: Corynebacterium glutamicum LIMA-2; assay: Kinetics and stoichiometry of MA production from catechol, batch shake flask, LIMA-2; format: cell-based; details: only 10 mM catechol
Procedure: as §2, §3

[7] = test system: Amycolatopsis sp. ATCC 39116; assay: Growth of wildtype on guaiacol as sole source of carbon; format: cell-based
Procedure: as §1
The cell concentration was determined in duplicate as optical density at 600 nm (OD600). The cell dry mass (CDM) was determined gravimetrically in triplicate. In short, 20 mL culture broth was filtered (Whatman cellulose filter, Grade 3, GE-Healthcare Life Sciences, Little Chalfont, UK), washed three times, and dried to constant weight (HB43-S, Mettler-Toledo, Columbus, Ohio, UA). The correlation factor was CDM [g L^−1]=0.45×OD600.
The capability to use guaiacol was found most relevant, given the huge importance of the aromatic as the dominant building block of softwood lignin, and was therefore studied now in more detail. The wildtype was found robust and tolerated elevated levels of guaiacol. Concentrations up 25 mM were utilized (FIG. 25). […] On a quantitative basis, MA reached a level of 0.3 mM, which represented about 5% of the initially added guaiacol. […]

[8] = LIMA-1, initial 20 mM benzoate, 10 mM catechol, 5 mM phenol, glucose added
[9] = column LIMA-1, 10 mM catechol plus 2 mM benzoate as inducer

## Cc1cccc(O)c1O [3-Methyl catechol]
[1]
  Specific activity: 470 ± 9 mU mg^−1
[1]; catechol replaced by equimolar substrate
  activity relative to that found for catechol: about 70%

## Cc1ccc(O)c(O)c1 [4-Methyl catechol]
[1]
  accepted as substrate by the enzyme: accepted
  Specific activity: 380 ± 5 mU mg^−1

## O=C(O)c1ccccc1 [Benzoic acid]
[2]
  Growth: +++ (OD > 1)
[3]; LIMA-1 crude extract
  CatA activity of cells cultivated on the aromatic: 490 mU mg^−1
  fold higher CatA activity versus culture only on glucose: 16 fold
[4]
  level up to which the mutant grew (highest concentrations tested): ≤ 80 mM
[5]
  YMA/Aro, MA yield: 1.00 ± 0.02 mol mol^−1
  YX/Glc, biomass yield: 0.46 ± 0.01 g/g
  qGlc, specific glucose uptake rate: 0.5 ± 0.0 mmol/g/h
  qMA, specific MA production rate: 3.3 ± 0.1 mmol/g/h

## Oc1ccccc1O [Catechol]
[2]
  Growth: ++ (1 > OD > 0.5)
[1]
  Specific activity: 640 ± 19 mU mg^−1
[1]; listed as catechol
  Specific activity: 640 mU mg^−1
[3]; read-out: KM-value for catechol, crude extract of benzoate-grown cells, Michaelis-Menten fit
  Km: 2.3 µM
[5]; [8]
  YMA/Aro, MA yield: 0.99 ± 0.02 mol mol^−1
  YX/Glc, biomass yield: 0.38 ± 0.01 g/g
  qGlc, specific glucose uptake rate: 0.3 ± 0.0 mmol/g/h
  qMA, specific MA production rate: 0.2 ± 0.0 mmol/g/h
[5]; LIMA-1, initial 20 mM benzoate, 10 mM catechol, 5 mM phenol, glucose added, listed as catechol
  YMA/Aro, MA yield: 1.00±0.01 mol mol^−1
[5]; [9]
  qGlc, specific glucose uptake rate: 0.7 ± 0.0 mmol/g/h
  qMA, specific MA production rate: 5.2 ± 0.4 mmol/g/h
[6]
  YMA/Aro, MA yield: 1.00 ± 0.01 mol mol^−1
  YX/Glc, biomass yield: 0.40 ± 0.02 g/g
  qGlc, specific glucose uptake rate: 0.4 ± 0.0 mmol/g/h
  qMA, specific MA production rate: 3.5 ± 0.1 mmol/g/h

## O=C(O)/C=C\C=C/C(=O)O [Cis,cis-muconic acid, (2Z,4Z)-2,4-Hexadienedioate]
[2]
  Growth: +++ (OD > 1)

## COc1ccccc1O [Guaiacol]
[2]
  Growth: ++ (1 > OD > 0.5)
[7]; guaiacol as sole carbon source
  specific growth rate: 0.30 h⁻¹
[7]; guaiacol as sole source of carbon, 24 hours
  concentrations utilized (tolerated) up to: ≤ 25 mM

## Oc1ccccc1 [Phenol]
[2]
  Growth: ++ (1 > OD > 0.5)
[5]
  YMA/Aro, MA yield: 0.95 ± 0.09 mol mol^−1
  YX/Glc, biomass yield: 0.48 ± 0.01 g/g
  qGlc, specific glucose uptake rate: 0.6 ± 0.0 mmol/g/h
  qMA, specific MA production rate: 0.1 ± 0.0 mmol/g/h

## Cc1ccccc1 [Toluene]
[2]
  Growth: + (0.5 > OD > 0.25)

## O=C(O)/C=C/c1ccc(O)cc1 [p-Coumaric acid]
[2]
  Growth: +++ (OD > 1)
